From article PMC10447463, “Data-mining unveils structure–property–activity correlation of viral infectivity enhancing self-assembling peptides” (Nature Communications, 2023)
Where two headings read alike, the source gives them in different places.

Experiments:
[1] = test system: HIV-1 infection of TZM-bl cells; test: HIV-1 infectivity enhancement assay, β-galactosidase luminescence; type: cell-based; details: for Rel-EFC / Log10 Infection Rel EFC: 1.3 µM peptide; for Rel-EFC: infection relative to EF-C (QCKIKQIINMWQ = 1); for Log10 Infection Rel EFC: log10 of infection relative to EF-C; for Log Infectivity: Fig. S7 panel A (plotted against β-sheet content), Log10 infection relative to EF-C, asymmetric std dev errors; for Log10 Infection Rel EF-C: HIV-1 infection of TZM-bl cells
[2] = β-sheet content by ATR-FT-IR; type: physicochemical; details: Fig. S7 panel A; β-sheet content by ATR-FT-IR
Procedure: For ATR FT–IR spectroscopy measurements, 200 µL of the respective 1 mg/mL PNF solution was lyophilized and the resulting powder used for measurement. All spectra were recorded on a Bruker Tensor 27 spectrometer with a diamond crystal as ATR element (PIKE MiracleTM, spectral resolution 2 cm^-1). Every sample was measured with 64 scans. Data were analyzed with OriginLab software and calculation of β–sheet content was conducted according to a previous report. TEM. For TEM measurements 5 µL of PNF fibrils (1 mg/mL) were placed on copper grids coated with carbon and formvar layer (300 mesh, Plano GmbH). After 10 min incubation time, the grids were staining with 4% uranyl acetate solution for 2.5 min and washed with water. Measurements were performed on a Jeol 1400 electron microscope with 120 kV acceleration voltage. CR Assay. For the determination of the amount of peptide monomer converting into nanostructures the amine reactive dye fluorescamine was used analogous to a previous reported protocol. Briefly, 100 µL of the preformed PNF solution was centrifuged in a Vivaspin 500 tube (3 kDa MWCO) to separate fibers from free peptide monomer (16200 x g, 4 °C, 45 min). The filtrate and 100 μL of the non-filtered PNF sample were lyophilized and dissolved in 30 μL DMSO. 10 μL of the filtrate and non-filtered DMSO samples were submitted in a black UV Star® 384 microliter well–plates (Greiner bio–one) and 3 μL of the fluorescamine solution (10 mg/mL, DMSO) was added to measure the fluorescence enhancement. After 20 min of incubation at RT, fluorescence was recorded on an Infinite® M1000 PRO microplate reader (Tecan) at λem = 470 nm upon excitation at λex = 365 nm with 10 nm bandwidths and multiple reads per well (3×3). Measurements were repeated in triplicates and averaged with standard deviation. All values were calculated as n-fold fluorescence enhancement (DMSO only as a reference was set to 1). The conversion rate CR was defined according to the equation Eq. (3).3 CR=100−100×fluorescenceintensityfiltrate/fluorescenceintensityoriginal[%]

[3] = Zeta-potential measurement; type: physicochemical
Procedure, shortened: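 Zeta potentials of aggregated peptides come from electrophoretic mobility (Smoluchowski model) in 1 mM KCl after a 1 d RT incubation at 1 mg/mL in PBS, pH 7.4.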

[4] = Turbidity, derived count rate of scattered light; type: physicochemical; details: for Count Rate / kcps: derived count rate of scattered light at 633 nm, 173°, from zeta-potential measurement, 0.1 mg/mL in 1 mM KCl after 1 d at 1 mg/mL in PBS, turbidity / microscopic aggregation, mean of triplicate
Procedure: 4 µL of 1 mg/mL peptide fibrils solution is added to a 20 µL, 50 µM ThT–solution in PBS. The mixture is incubated for 15 min at RT to allow binding of ThT dye with β–sheet rich structures. For reference PBS (4 µL) was added instead of peptide fibril solution. The samples were placed in black UV Star® 384 microliter well–plates (Greiner bio–one). Fluorescence spectra were recorded on an Infinite® M1000 PRO microplate reader (Tecan) at λem = 488 nm upon excitation at λex = 440 nm with 10 nm bandwidths and multiple reads per well (3×3). Measurements were repeated in triplicates and averaged with standard deviation. […] Zeta-Potential. For the determination of the surface charge of aggregated peptides zeta-potential measurements were conducted with a Zetasizer Nano ZS, Malvern Instruments. Unless stated otherwise the peptides were dissolved from DMSO (10 mg/mL) in PBS (pH 7.4) to concentration of 1 mg/mL and incubated for 1d at RT. Just before the measurement the 60 µL of the peptides were further diluted in 600 µL KCl (aq, 1 mM) in a 1 mL disposable folded capillary cells (DTS–1060, Zetasizer Nano series, Malvern). The zeta potential of the peptides was derived from the electrophoretic mobility based on the Smoluchowski formula. All measurements were averaged over two individually performed experiments and conducted in triplicates for each sample. Aggregate analysis. […] Furthermore, fluorescence microscopy was conducted by staining 1 µL preformed fibrils (1 mg/mL) with 9 µL ThT (50 µM). Brightfield microscopy was performed simultaneously to evaluate aggregation also for non ThT-active fibrils. The measurements were performed on a Leica DMi8 microscope with 10x air objective and equipped with a Leica MC170 HD camera with a filter setting λem = 527/30 nm upon excitation at λex = 480/40 nm) and processed with the Leica LASX software. To quantify size and number of microscopic aggregation of particles > 10 µm^2 at least 3 independently measured images were analyzed via the 3D object counter analysis tool of ImageJ, v 1.53f51. Sum–frequency generation. The SFG experiments were carried out with a femtosecond Ti: Sapphire amplified laser system (Spitfire Ace, Spectra–Physics, 800 nm, 40 fs, 1 kHz) with 5 W output power. We used 2 W to pump an optical parametric amplifier (TOPAS, light conversion) with a non–collinear difference frequency generation stage to generate broadband IR pulses. Another 1 W of the laser output passed through an etalon to generate narrowband visible pulses (10 cm^-1). The incident angles of the visible and IR beams were 36° and 41° with respect to the surface normal, respectively. The visible (13 µJ) and IR (5 µJ) pulses were overlapped spatially and temporally at the sample position. Subsequently, the generated SFG pulse was guided into a spectrograph (Acton SP 300i, Princeton Instruments), and detected with an EMCCD (Newton, Andor Technology). To avoid IR absorption of water vapor, we purged N2 for the measurement. All spectra were collected in the ssp (denoting s-, s- and p-polarized SFG, visible and IR, respectively) polarization combination. The spectra were normalized to the non–resonant signal taken from z–cut quartz after subtracting a background spectrum. […]
ways to determine turbidity of samples, this can be via transmittance and via scattering. Transmittance […]
as it is an easy and fast method.10,11 However, transmittance contributes not only from µm-sized aggregates but also nm-sized aggregates such as distinct fibrils, which makes hard to distinguish between fibril formation and micrometer sized aggregation. Although dynamic light scattering is a frequently applied method for determination of particle size, it cannot be conducted in solutions with anisotropic aggregates in micrometer size range, since the Stokes-Einstein relation is only applicable for homogeneous […] spherical particles.12 Further models describing scattering intensity and […]

[5] = Turbidity, derived count rate of scattered light; type: physicochemical; details: for Count Rate: derived count rate of scattered light (turbidity); for Log10 Count Rate: turbidity, derived count rate of scattered light, data of Figure 2D
[6] = Log10 of infection rate relative to EF-C, Figure 3A source data
[7] = infection rate relative to EF-C, log10, data of Figure 2D
[8] = infection rate relative to EF-C, log10, source data of Figure 2C
[9] = zeta-potential of peptide, source data of Figure 2C
[10] = zeta-potential of the peptide assemblies, mean, Figure 3A source data
[11] = Log10 of derived count rate of scattered light (turbidity)
[12] = log10 of derived count rate of scattered light (turbidity)
[13] = turbidity, Log10 of derived count rate of scattered light, Figure 3A source data

Row | Sequence | Rel-EFC [1] | Log10 Infection Rel EFC [1] | Log Infectivity ([1]; TZM-bl cells) | Log10 Infection Rel EF-C [1, 6] | Log10 Infection Rel EF-C [1, 7] | Log10 Infection Rel EF-C [1, 8] | Abs. Inf. ([1]; absolute HIV-1 infection signal, TZM-bl cells, β-galactosidase luminescence) | b -sheet / % [2] | Zeta-Pot. [3] | Zeta-Potential / mV [3, 9] | Zeta-Potential / mV [3, 10] | Log10 Count Rate [4, 11] | Count Rate / kcps [4] | Log10 Count Rate [4, 12] | Log10 Count Rate [4, 13] | Count Rate [5] | Log10 Count Rate [5] | Zeta-Pot. ([3]; zeta potential of peptide assemblies)
1 | HHHHKAKAKAKAWWWW | 0,09 | -1,05 | -1.048 | -1.05 | -1.048 | -1.048 | 3233 | 40.26% | 17.4 | 12.25 mV | 17.4 mV | 2.8188 | 659 kcps | 2.8188 | 2.8188 | 658.9 | 2.8188 | 
2 | HHHHKAKAKAKAYYYY | 0,01 | -1,88 | -1.883 | -1.88 | -1.883 | -1.883 |  | 44.29% |  | 4.787 mV | 7.03 mV | 2.382 | 241 kcps | 2.382 | 2.382 | 240.9 | 2.382 | 7.03
